Source: ChEMBL document CHEMBL1201862, “PubChem BioAssay data set” (2004)
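Values below derive from 48-hour exposures of cells grown in 96-well plates, with endpoints linearly interpolated between the two concentrations bracketing the appropriate inhibition level. Here, GI50 denotes the concentration required for 50% inhibition of growth.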 Active and inactive are the calls of the source. No stated cut-off is given here; in the data, active = GI50 up to about 1.1 µM and inactive = higher.

Columns and labels:
Test in all cases: inhibition of tumour cell growth, NCI panel, 48 h
RXF 393 = tested on: RXF 393
TK-10 = tested on: TK-10
ACHN = tested on: ACHN
LOX IMVI = tested on: LOX IMVI
HL-60 = tested on: HL-60
MOLT-4 = tested on: MOLT-4
KM12 = tested on: KM12
NCI-H226 = tested on: NCI-H226
UO-31 = tested on: UO-31
SNB-78 = tested on: SNB-78
SN12C = tested on: SN12C
LXFL 529 = tested on: LXFL 529
NCI-H23 = tested on: NCI-H23
UACC-257 = tested on: UACC-257
SR = tested on: SR
SW-620 = tested on: SW-620
RPMI-8226 = tested on: RPMI-8226
UACC-62 = tested on: UACC-62
XF498 = tested on: XF498
786-0 = tested on: 786-0
SK-MEL-2 = tested on: SK-MEL-2
DMS-114 = tested on: DMS-114
KM-20L2 = tested on: KM-20L2
HT-29 = tested on: HT-29
COLO 205 = tested on: COLO 205
DMS-273 = tested on: DMS-273
SK-OV-3 = tested on: SK-OV-3
M19-MEL = tested on: M19-MEL
M14 = tested on: M14
HOP-92 = tested on: HOP-92
DLD-1 = tested on: DLD-1
OVCAR-8 = tested on: OVCAR-8
HOP-62 = tested on: HOP-62
A498 = tested on: A498
SK-MEL-28 = tested on: SK-MEL-28
SF-539 = tested on: SF-539
CCRF-CEM = tested on: CCRF-CEM
A549 = tested on: A549
HOP-18 = tested on: HOP-18
NCI-H522 = tested on: NCI-H522
OVCAR-5 = tested on: OVCAR-5
SNB-19 = tested on: SNB-19
SNB-75 = tested on: SNB-75
Malme-3M = tested on: Malme-3M
HCT-116 = tested on: HCT-116
K562 = tested on: K562
SF-268 = tested on: SF-268
SF-295 = tested on: SF-295
OVCAR-3 = tested on: OVCAR-3
U-251 = tested on: U-251
EKVX = tested on: EKVX
SK-MEL-5 = tested on: SK-MEL-5
HCC 2998 = tested on: HCC 2998

Measured: GI50

COc1cc(CC2c3cc(OC)c(OC)cc3CCN2C)c(C(=O)O)cc1OC (stereo not drawn)
inactive: RXF 393 > 100 µM | TK-10 > 100 µM | ACHN > 100 µM | LOX IMVI > 100 µM | HL-60 > 100 µM | MOLT-4 > 100 µM | KM12 > 100 µM | NCI-H226 > 100 µM | UO-31 > 100 µM | SNB-78 > 100 µM | SN12C > 100 µM | LXFL 529 > 100 µM | NCI-H23 > 100 µM | UACC-257 > 100 µM | SR > 100 µM | SW-620 > 100 µM | RPMI-8226 > 100 µM | UACC-62 > 100 µM | XF498 > 100 µM | 786-0 > 100 µM | SK-MEL-2 > 100 µM | DMS-114 > 100 µM | KM-20L2 > 100 µM | HT-29 > 100 µM | COLO 205 > 100 µM | DMS-273 > 100 µM | SK-OV-3 > 100 µM | M19-MEL > 100 µM | M14 > 100 µM | HOP-92 > 100 µM | DLD-1 > 100 µM | OVCAR-8 > 100 µM | HOP-62 > 100 µM | A498 > 100 µM | SK-MEL-28 > 100 µM | SF-539 > 100 µM | CCRF-CEM > 100 µM | A549 > 100 µM | HOP-18 > 100 µM | NCI-H522 > 100 µM | OVCAR-5 > 100 µM | SNB-19 > 100 µM | SNB-75 > 100 µM | Malme-3M > 100 µM | HCT-116 > 100 µM | K562 > 100 µM | SF-268 > 100 µM | SF-295 > 100 µM | OVCAR-3 > 100 µM | U-251 > 100 µM | EKVX > 100 µM | SK-MEL-5 > 100 µM | HCC 2998 > 100 µM
